In brackets after ≈: the same amount, converted by molar mass.
Experiments:
Assay in all cases: ≥ marks a high value that may be exact or a test limit, other limits are often not marked, values filed in µg/mL are converted to µM
[1] = system: Bacillus cereus ATCC 14579
[2] = system: Fusarium oxysporum f.sp. vasinfectum
[3] = system: Pectobacterium carotovorum
[4] = system: Pseudomonas aeruginosa ATCC 27853
[5] = system: Bacillus subtilis ATCC 23857
[6] = system: Escherichia coli ATCC 25922
[7] = system: Pseudomonas syringae pv. tabaci
[8] = system: Staphylococcus aureus ATCC 25923
[9] = system: Trichoderma asperellum
[10] = system: Cryptococcus neoformans ATCC 28957
[11] = system: Fusarium solani
[12] = system: Xanthomonas campestris pv. citri
[13] = system: Fusarium oxysporum
[14] = system: Ramulariopsis gossypii
[15] = system: Rhizoctonia solani
[16] = system: Candida albicans ATCC 90028
[17] = system: Streptococcus agalactiae
[18] = system: Pseudomonas aeruginosa
[19] = system: Staphylococcus aureus
[20] = system: Acinetobacter calcoaceticus
[21] = system: Candida albicans
[22] = system: Pseudomonas aeruginosa 4891
[23] = system: Salmonella typhimurium KCTC 1926
[24] = system: Trichosporon beigelii KCTC 7707
[25] = system: Bacillus subtilis KCTC 1998
[26] = system: Candida albicans KCTC 7270
[27] = system: Escherichia coli CCARM 1238
[28] = system: Staphylococcus aureus CCARM 3518
[29] = system: Staphylococcus aureus CCARM 3090
[30] = system: Escherichia coli CCARM 1229
[31] = system: Listeria monocytogenes KCTC 3710
[32] = system: Pseudomonas aeruginosa 4007
[33] = system: Vibrio fluvialis
[34] = system: Vibrio parahaemolyticus
[35] = system: Aeromonas hydrophila
[36] = system: Escherichia coli
[37] = system: Vibrio alginolyticus

| SMILES | MIC [1] | MIC [2] | MIC [3] | MIC [4] | MIC [5] | MIC [6] | MIC [7] | MIC [8] | MIC [9] | MIC [10] | MIC [11] | MIC [12] | MIC [13] | MIC [14] | MIC [16] | MIC [19] | MIC [22] | MIC [23] | MIC [24] | MIC [25] | further results |
| --- | --- | --- | --- | --- | --- | --- | --- | --- | --- | --- | --- | --- | --- | --- | --- | --- | --- | --- | --- | --- | --- |
| CSCC[C@H](NC(=O)[C@H](CCCCN)NC(=O)[C@H](Cc1ccc(O)cc1)NC(=O)[C@H](C)NC(=O)[C@H](CCC(=O)O)NC(=O)[C@H](CC(C)C)NC(=O)[C@H](CC(C)C)NC(=O)[C@H](CCCN=C(N)N)NC(=O)[C@H](CC(N)=O)NC(=O)[C@H](C)N)C(=O)N[C@@H](CC(C)C)C(=O)N[C@@H](CC(C)C)C(=O)N[C@@H](CCCCN)C(=O)N[C@@H](Cc1ccccc1)C(=O)N[C@@H](CC(C)C)C(=O)NCC(=O)N[C@@H](CC(N)=O)C(=O)N[C@@H](CC(C)C)C(=O)N[C@@H](CCCN=C(N)N)C(N)=O [ANRLLEAYKMLLKFLGNLR] | 4 µM (≈ 9.05 µg/mL) | 1.67 µM (≈ 3.78 µg/mL) | 1 µM (≈ 2.26 µg/mL) | 32 µM (≈ 72.4 µg/mL) | 1 µM (≈ 2.26 µg/mL) | 4 µM (≈ 9.05 µg/mL) | 2 µM (≈ 4.53 µg/mL) | 1 µM (≈ 2.26 µg/mL) | 4 µM (≈ 9.05 µg/mL) | 2.67 µM (≈ 6.04 µg/mL) | 2 µM (≈ 4.53 µg/mL) | 4 µM (≈ 9.05 µg/mL) | 4 µM (≈ 9.05 µg/mL) | 2 µM (≈ 4.53 µg/mL) | 4 µM (≈ 9.05 µg/mL) |  |  |  |  |  | MIC [15]: 4 µM (≈ 9.05 µg/mL) |
| CC[C@H](C)[C@H](NC(=O)[C@H](C)NC(=O)[C@H](Cc1cnc[nH]1)NC(=O)[C@@H]1CCCN1C(=O)[C@@H](NC(=O)[C@H](CC(C)C)NC(=O)[C@H](CO)NC(=O)[C@H](CC(C)C)NC(=O)[C@@H](N)Cc1ccccc1)[C@@H](C)CC)C(=O)N[C@@H](CC(N)=O)C(=O)N[C@@H](C)C(=O)N[C@H](C(=O)N[C@@H](CO)C(=O)N[C@@H](C)C(=O)N[C@@H](CC(C)C)C(=O)N[C@@H](C)C(=O)N[C@@H](CC(N)=O)C(=O)N[C@@H](Cc1cnc[nH]1)C(=O)NCC(N)=O)C(C)C [FLSLIPHAINAVSALANHG] |  |  |  |  |  |  |  |  |  |  |  |  |  |  |  | 8.2 µM (≈ 15.9 µg/mL) |  |  |  |  | MIC [17]: 4.1 µM (≈ 7.97 µg/mL); MIC [18]: 32.8 µM (≈ 63.8 µg/mL); MIC [20]: 4.1 µM (≈ 7.97 µg/mL); MIC [21]: 8.2 µM (≈ 15.9 µg/mL) |
| CC[C@H](C)[C@H](NC(=O)CNC(=O)[C@H](CCC(N)=O)NC(=O)[C@H](Cc1ccccc1)NC(=O)[C@@H](NC(=O)[C@H](CCCCN)NC(=O)[C@H](CCCCN)NC(=O)[C@H](CC(C)C)NC(=O)[C@H](C)NC(=O)[C@H](CC(N)=O)NC(=O)[C@H](CC(C)C)NC(=O)CN)C(C)C)C(=O)N[C@@H](Cc1cnc[nH]1)C(=O)N[C@@H](CCC(=O)O)C(=O)N[C@@H](C)C(=O)N[C@H](C(=O)N[C@@H](CCCCN)C(=O)N[C@@H](CCCCN)C(=O)N[C@H](C(=O)N[C@@H](CC(N)=O)C(=O)N[C@@H](CC(N)=O)C(=O)N[C@@H](Cc1cnc[nH]1)C(=O)N[C@H](C(=O)N[C@@H](CCC(N)=O)C(N)=O)C(C)C)[C@@H](C)CC)[C@@H](C)CC [GLNALKKVFQGIHEAIKKINNHVQ] |  |  |  | 2 µM (≈ 5.4 µg/mL) |  | 4 µM (≈ 10.8 µg/mL) |  | 8 µM (≈ 21.6 µg/mL) |  |  |  |  |  |  |  |  | 8 µM (≈ 21.6 µg/mL) | 4 µM (≈ 10.8 µg/mL) | ≥ 32 µM | 8 µM (≈ 21.6 µg/mL) | MIC [26]: ≥ 32 µM; MIC [27]: 4 µM (≈ 10.8 µg/mL); MIC [28]: 8 µM (≈ 21.6 µg/mL); MIC [29]: 8 µM (≈ 21.6 µg/mL); MIC [30]: 4 µM (≈ 10.8 µg/mL); MIC [31]: 8 µM (≈ 21.6 µg/mL); MIC [32]: 2 µM (≈ 5.4 µg/mL) |
| CSCC[C@H](NC(=O)[C@H](Cc1ccccc1)NC(=O)CNC(=O)[C@H](Cc1cnc[nH]1)NC(=O)[C@H](CC(C)C)NC(=O)[C@H](CO)NC(=O)CN)C(=O)N[C@@H](Cc1ccc(O)cc1)C(=O)N[C@@H](CCCCN)C(=O)N[C@@H](Cc1ccc(O)cc1)C(=O)N[C@@H](CC(C)C)C(=O)N[C@@H](CCCCN)C(=O)N[C@@H](CC(N)=O)C(=O)N[C@@H](CCSC)C(=O)N[C@H](C(=O)N[C@@H](CC(C)C)C(=O)N[C@H](C(=O)N[C@@H](CC(C)C)C(=O)N[C@@H](Cc1ccccc1)C(N)=O)[C@@H](C)O)C(C)C [GSLHGFMYKYLKNMVLTLF] | ≥ 128 µM | 8 µM (≈ 18.1 µg/mL) | ≥ 256 µM | 32 µM (≈ 72.4 µg/mL) | 16 µM (≈ 36.2 µg/mL) | 64 µM (≈ 145 µg/mL) | 16 µM (≈ 36.2 µg/mL) | 16 µM (≈ 36.2 µg/mL) | 8 µM (≈ 18.1 µg/mL) | 16 µM (≈ 36.2 µg/mL) | ≥ 32 µM | ≥ 128 µM | 16 µM (≈ 36.2 µg/mL) | 4 µM (≈ 9.05 µg/mL) | 16 µM (≈ 36.2 µg/mL) |  |  |  |  |  |  |
| CC[C@H](C)[C@H](NC(=O)CNC(=O)[C@H](CCC(N)=O)NC(=O)[C@H](Cc1c[nH]c2ccccc12)NC(=O)[C@@H](NC(=O)[C@H](CCCCN)NC(=O)[C@H](CCCCN)NC(=O)[C@H](CC(C)C)NC(=O)[C@H](C)NC(=O)[C@H](CC(N)=O)NC(=O)[C@H](CC(C)C)NC(=O)[C@@H](N)Cc1c[nH]c2ccccc12)C(C)C)C(=O)N[C@@H](Cc1cnc[nH]1)C(=O)N[C@@H](CCC(=O)O)C(=O)N[C@@H](C)C(=O)N[C@H](C(=O)N[C@@H](CCCCN)C(=O)N[C@@H](CC(C)C)C(=O)N[C@H](C(=O)N[C@@H](Cc1c[nH]c2ccccc12)C(=O)N[C@@H](CC(N)=O)C(=O)N[C@@H](Cc1c[nH]c2ccccc12)C(=O)N[C@H](C(=O)N[C@@H](CCC(N)=O)C(N)=O)C(C)C)[C@@H](C)CC)[C@@H](C)CC [WLNALKKVWQGIHEAIKLIWNWVQ] |  |  |  | 16 µM (≈ 47.6 µg/mL) |  | 16 µM (≈ 47.6 µg/mL) |  | 32 µM (≈ 95.2 µg/mL) |  |  |  |  |  |  |  |  | ≥ 64 µM | 16 µM (≈ 47.6 µg/mL) | ≥ 32 µM | ≥ 32 µM | MIC [26]: ≥ 32 µM; MIC [27]: ≥ 32 µM; MIC [28]: ≥ 32 µM; MIC [29]: ≥ 32 µM; MIC [30]: ≥ 32 µM; MIC [31]: ≥ 32 µM; MIC [32]: ≥ 64 µM |
| CC[C@H](C)[C@H](NC(=O)[C@H](Cc1cnc[nH]1)NC(=O)[C@H](C)NC(=O)[C@@H](NC(=O)[C@H](CC(N)=O)NC(=O)[C@H](Cc1cnc[nH]1)NC(=O)[C@H](CC(C)C)NC(=O)[C@H](C)NC(=O)CNC(=O)[C@H](Cc1ccc(O)cc1)NC(=O)[C@@H](N)Cc1ccc(O)cc1)[C@@H](C)O)C(=O)N[C@H](C(=O)N[C@@H](CC(C)C)C(=O)NCC(=O)N[C@@H](CCCN=C(N)N)C(=O)O)C(C)C [YYGALHNTAHIVLGR] |  |  |  |  |  |  |  |  |  |  |  |  |  |  |  | > 148 µM |  |  |  |  | MIC [33]: ≥ 148 µM; MIC [34]: ≥ 148 µM; MIC [35]: ≥ 74.2 µM; MIC [36]: 74.2 µM (≈ 125 µg/mL); MIC [37]: 9.26 µM (≈ 15.6 µg/mL) |

Source: DBAASP
